{
  "source": "patent US20060039869A1",
  "about": "“Intranasal delivery of antipsychotic drugs” (priority 2004, published 2006)",
  "key": {"[1]": {"conditions": "cited from earlier work"}, "clinical": {"assay": "clinical", "conditions": "human, plasma, 2.5 mg; for Cmax: n=4, mean (CV %)"}, "[2]": {"conditions": "for Tmax: healthy subjects n=4, median (range)"}},
  "note": "Where “and” joins values, the source holds several entries; their conditions need not be identical. Identical values can stand only once. Like-named read-outs stand apart in the source and are kept apart here.",
  "data": [
    {"compound": "O=C(CCCN1CCC(O)(c2ccc(Cl)cc2)CC1)c1ccc(F)cc1", "note": "[haloperidol lactate, haloperidol]", "values": [
      {"measurement": "time of peak plasma concentration", "setting": "[1]; intramuscular administration", "result": "approximately 20 minutes"},
      {"measurement": "absolute bioavailability", "setting": "[1]; oral administration", "result": "approximately 65%"},
      {"measurement": "AUC(0-inf)", "setting": "clinical; both, im", "result": 81.8, "unit": "ng·h/mL"},
      {"measurement": "AUC(0-t)", "setting": "clinical; both, im", "result": 59.7, "unit": "ng·h/mL"},
      {"measurement": "MRT", "setting": "clinical; both, im", "result": 16.1, "unit": "h"},
      {"measurement": "Tmax", "setting": "clinical; both, im", "result": 0.625, "unit": "h"},
      {"measurement": "Vd/F", "setting": "clinical; both, im", "result": 1360, "unit": "L"},
      {"measurement": "half-life", "setting": "clinical; both, im", "result": 28.8, "unit": "h"},
      {"measurement": "Cmax", "setting": "clinical; both, im, IM 2.5 mg", "result": 8.42, "unit": "ng/mL"},
      {"measurement": "bioavailability", "setting": "clinical; both, intramuscular", "result": 134, "unit": "%"},
      {"measurement": "AUC(0-inf)", "setting": "clinical; both, iv", "result": 60.4, "unit": "ng·h/mL"},
      {"measurement": "AUC(0-t)", "setting": "clinical; both, iv", "result": 50.8, "unit": "ng·h/mL"},
      {"measurement": "MRT", "setting": "clinical; both, iv", "result": 12.7, "unit": "h"},
      {"measurement": "Tmax", "setting": "clinical; both, iv", "result": 0.25, "unit": "h"},
      {"measurement": "Vd", "setting": "clinical; both, iv", "result": 934, "unit": "L"},
      {"measurement": "half-life", "setting": "clinical; both, iv", "result": 17.1, "unit": "h"},
      {"measurement": "Cmax", "setting": "clinical; both, iv, IV 2.5 mg", "result": 23.3, "unit": "ng/mL"},
      {"measurement": "AUC(0-inf)", "setting": "clinical; both, other: intranasal", "result": 37.9, "unit": "ng·h/mL"},
      {"measurement": "AUC(0-t)", "setting": "clinical; both, other: intranasal", "result": 31.7, "unit": "ng·h/mL"},
      {"measurement": "MRT", "setting": "clinical; both, other: intranasal", "result": 12.9, "unit": "h"},
      {"measurement": "Tmax", "setting": "clinical; both, other: intranasal", "result": 0.25, "unit": "h"},
      {"measurement": "Vd/F", "setting": "clinical; both, other: intranasal", "result": 1580, "unit": "L"},
      {"measurement": "bioavailability", "setting": "clinical; both, other: intranasal", "result": 63.8, "unit": "%"},
      {"measurement": "half-life", "setting": "clinical; both, other: intranasal", "result": 16.9, "unit": "h"},
      {"measurement": "Cmax", "setting": "clinical; both, other: intranasal, IN 2.5 mg", "result": 9.8, "unit": "ng/mL"},
      {"measurement": "Tmax", "setting": "clinical; im", "result": 16, "unit": "h"},
      {"measurement": "Tmax", "setting": "[2]; IM 2.5 mg", "result": "0.625 (0.25-16) h"},
      {"measurement": "Cmax after intranasal dose compared with intramuscular dose", "setting": "[2]; IN 2.5 mg vs IM 2.5 mg", "result": "slightly higher"},
      {"measurement": "Tmax", "setting": "[2]; IN 2.5 mg", "result": "0.25 (0.12-0.5) h"},
      {"measurement": "Cmax, individual subjects", "setting": "[2]; IN 2.5 mg, single subjects", "result": "16.2 ng/mL and 7.5 to 7.9 ng/mL"},
      {"measurement": "time at which haloperidol concentrations reached a peak, individual subjects", "setting": "[2]; IN 2.5 mg, single subjects", "result": "7.5 min and 15 min and 30 min"},
      {"measurement": "half-lives, intravenous and intranasal", "setting": "[2]; IV vs IN 2.5 mg", "result": "similar"}
    ]}
  ]
}
